We go through eight compounds from patent US11572399B2, “Long-acting GIP peptide analogues” (University of Copenhagen, priority 2017, dated 2023).

Peptide text beside a SMILES is read from it. * marks the point of attachment. C16 diacid = O=C(O)CCCCCCCCCCCCCCC(=O)*

The target of this assay is T1, human GIP receptor (Homo sapiens, UniProt P48546).
T1 construct: host or cells: COS-7, transient transfection (calcium phosphate), cDNA in pCMV-Script
T1 sequence (P48546 22-466): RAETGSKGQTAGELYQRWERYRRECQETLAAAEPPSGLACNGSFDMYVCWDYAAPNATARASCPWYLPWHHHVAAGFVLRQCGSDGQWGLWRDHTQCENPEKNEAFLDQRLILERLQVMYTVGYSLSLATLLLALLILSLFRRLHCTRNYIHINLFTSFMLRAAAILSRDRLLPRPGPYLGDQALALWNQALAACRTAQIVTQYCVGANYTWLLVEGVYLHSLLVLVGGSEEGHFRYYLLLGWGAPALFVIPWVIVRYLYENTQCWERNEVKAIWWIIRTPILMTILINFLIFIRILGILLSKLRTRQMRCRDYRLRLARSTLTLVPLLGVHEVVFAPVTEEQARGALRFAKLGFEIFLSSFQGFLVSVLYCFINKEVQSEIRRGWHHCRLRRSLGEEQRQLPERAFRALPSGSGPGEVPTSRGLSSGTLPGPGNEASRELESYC
Description: cAMP accumulation assay, agonism (ligand alone). As to conditions: COS-7 cells, Table 1; for Emax: COS-7, intrinsic cAMP activity; for EC50: read-out: cAMP agonism nM (EC50). It counts as cell-based. How it is done: COS-7 cells were cultured at 10% CO2 and 37° C. in Dulbecco's modified Eagle's medium 1885 supplemented with 10% fetal bovine serum, 2 mM glutamine, 180 units/ml penicillin, and 45 µg/ml streptomycin. Transient transfection of the COS-7 cells for cAMP accumulation and competition binding was performed using the calcium phosphate precipitation method with the addition of chloroquine^46-47.
Transient transfected COS-7 cells expressing the human GIP receptor were seeded in white 96-well plates with a density of 3.5*10^4/well. The day after, the cells were washed twice with Hepes buffered saline (HBS) buffer and incubated with HBS and 1 mM 3-isobutyl-1-methylxanthine (IBMX) for 30 min at 37° C. To test for agonistic properties, ligands were added and incubated for 30 min at 37° C. In order to test for antagonistic properties, the cells were preincubated with the antagonists for 10 min prior to the addition of the agonist and subsequent incubated for 20 additional min. The HitHunter™ cAMP XS assay (DiscoveRx) was carried out according to the manufacturer's instructions.
IC50, EC50, and Ki values were determined by nonlinear regression. These were carried out with the GraphPad Prism 6.0 software (GraphPad, San Diego, Calif., USA) and Microsoft Excel™. Ki values were based on the formula for one class of binding sites in homologous competition binding studies and the Cheng Prussoffs formula, respectively (DeBlasi et al., 1989). To determine the HSA binding potential, the fold change in affinity (as determined by IC50) was calculated as IC50 (plus HSA)/IC50 (minus HSA).

For `CCCCCCCCCCCC(=O)NCCCC[C@H](NC(=O)[C@H](CCC(N)=O)NC(=O)[C@H](C)NC(=O)[C@H](CC(C)C)NC(=O)[C@H](CC(C)C)NC(=O)[C@H](Cc1c[nH]c2ccccc12)NC(=O)[C@H](CC(N)=O)NC(=O)[C@@H](NC(=O)[C@H](Cc1ccccc1)NC(=O)[C@H](CC(=O)O)NC(=O)[C@H](CCC(N)=O)NC(=O)[C@H](CCC(N)=O)NC(=O)[C@H](Cc1c[nH]cn1)NC(=O)[C@@H](NC(=O)[C@H](CCCCN)NC(=O)[C@H](CC(=O)O)NC(=O)[C@H](CCSC)NC(=O)[C@H](C)NC(=O)[C@@H](NC(=O)[C@H](CO)NC(=O)[C@H](Cc1ccc(O)cc1)NC(=O)[C@H](CC(=O)O)NC(=O)[C@H](CO)NC(=O)[C@@H](NC(=O)[C@H](Cc1ccccc1)NC(=O)[C@@H](N)[C@@H](C)O)[C@@H](C)CC)[C@@H](C)CC)[C@@H](C)CC)C(C)C)C(N)=O` [AT120, [hGIP(5-30)NH2—C12/30]], the Emax worked out at 0%.

As for `CCCCCCCCCCCCCCCC(=O)NCCCC[C@H](NC(=O)[C@H](CCC(N)=O)NC(=O)[C@H](C)NC(=O)[C@H](CC(C)C)NC(=O)[C@H](CC(C)C)NC(=O)[C@H](Cc1c[nH]c2ccccc12)NC(=O)[C@H](CC(N)=O)NC(=O)[C@@H](NC(=O)[C@H](Cc1ccccc1)NC(=O)[C@H](CC(=O)O)NC(=O)[C@H](CCC(N)=O)NC(=O)[C@H](CCC(N)=O)NC(=O)[C@H](Cc1c[nH]cn1)NC(=O)[C@@H](NC(=O)[C@H](CCCCN)NC(=O)[C@H](CC(=O)O)NC(=O)[C@H](CCSC)NC(=O)[C@H](C)NC(=O)[C@@H](NC(=O)[C@H](CO)NC(=O)[C@H](Cc1ccc(O)cc1)NC(=O)[C@H](CC(=O)O)NC(=O)[C@H](CO)NC(=O)[C@@H](NC(=O)[C@H](Cc1ccccc1)NC(=O)[C@@H](N)[C@@H](C)O)[C@@H](C)CC)[C@@H](C)CC)[C@@H](C)CC)C(C)C)C(N)=O` [AT126, [hGIP(5-30)NH2—C16/30]], the Emax is 75% and the EC50 turned out to be 316 nM.

With `CC[C@H](C)[C@H](NC(=O)[C@H](CO)NC(=O)[C@H](Cc1ccc(O)cc1)NC(=O)[C@H](CC(=O)O)NC(=O)[C@H](CO)NC(=O)[C@@H](NC(=O)[C@H](Cc1ccccc1)NC(=O)[C@@H](NC(=O)CNC(=O)[C@@H](N)CCC(=O)O)[C@@H](C)O)[C@@H](C)CC)C(=O)N[C@@H](C)C(=O)N[C@@H](CCSC)C(=O)N[C@@H](CC(=O)O)C(=O)N[C@@H](CCCCN)C(=O)N[C@H](C(=O)N[C@@H](Cc1c[nH]cn1)C(=O)N[C@@H](CCC(N)=O)C(=O)N[C@@H](CCC(N)=O)C(=O)N[C@@H](CC(=O)O)C(=O)N[C@@H](Cc1ccccc1)C(=O)N[C@H](C(=O)N[C@@H](CC(N)=O)C(=O)N[C@@H](Cc1c[nH]c2ccccc12)C(=O)N[C@@H](CCCCNC(=O)CCCCCCCCCCCCCCC(=O)O)C(=O)N[C@@H](CC(C)C)C(=O)N[C@@H](C)C(=O)N[C@@H](CCC(N)=O)C(=O)N[C@@H](CCCCN)C(N)=O)C(C)C)[C@@H](C)CC` [AT315, [hGIP(3-30)NH2[L26K]-C16diacid/26]] (H-EGTFISDYSIAMDKIHQQDFVNWK(C16 diacid)LAQK-NH2; N-terminus assumed), the Emax amounted to 5.9% and the EC50 is 183 nM.

Take `CC[C@H](C)[C@H](NC(=O)[C@H](CCCCNC(=O)CCCCCCCCCCCCCCC(=O)O)NC(=O)[C@H](Cc1ccc(O)cc1)NC(=O)[C@H](CC(=O)O)NC(=O)[C@H](CO)NC(=O)[C@@H](NC(=O)[C@H](Cc1ccccc1)NC(=O)[C@@H](NC(=O)CNC(=O)[C@@H](N)CCC(=O)O)[C@@H](C)O)[C@@H](C)CC)C(=O)N[C@@H](C)C(=O)N[C@@H](CCSC)C(=O)N[C@@H](CC(=O)O)C(=O)N[C@@H](CCCCN)C(=O)N[C@H](C(=O)N[C@@H](Cc1c[nH]cn1)C(=O)N[C@@H](CCC(N)=O)C(=O)N[C@@H](CCC(N)=O)C(=O)N[C@@H](CC(=O)O)C(=O)N[C@@H](Cc1ccccc1)C(=O)N[C@H](C(=O)N[C@@H](CC(N)=O)C(=O)N[C@@H](Cc1c[nH]c2ccccc12)C(=O)N[C@@H](CC(C)C)C(=O)N[C@@H](CC(C)C)C(=O)N[C@@H](C)C(=O)N[C@@H](CCC(N)=O)C(=O)N[C@@H](CCCCN)C(N)=O)C(C)C)[C@@H](C)CC` [AT302, [hGIP(3-30)NH2[S11K]-C16diacid/11]] (H-EGTFISDYK(C16 diacid)IAMDKIHQQDFVNWLLAQK-NH2; N-terminus assumed): the “cAMP agonism Emax” value (intrinsic cAMP activity) is “no ag”.

Compound `CC[C@H](C)[C@H](NC(=O)[C@H](CO)NC(=O)[C@H](Cc1ccc(O)cc1)NC(=O)[C@H](CC(=O)O)NC(=O)[C@H](CO)NC(=O)[C@@H](NC(=O)[C@H](Cc1ccccc1)NC(=O)[C@@H](N)[C@@H](C)O)[C@@H](C)CC)C(=O)N[C@@H](C)C(=O)N[C@@H](CCSC)C(=O)N[C@@H](CC(=O)O)C(=O)N[C@@H](CCCCN)C(=O)N[C@H](C(=O)N[C@@H](Cc1c[nH]cn1)C(=O)N[C@@H](CCC(N)=O)C(=O)N[C@@H](CCC(N)=O)C(=O)N[C@@H](CC(=O)O)C(=O)N[C@@H](Cc1ccccc1)C(=O)N[C@H](C(=O)N[C@@H](CC(N)=O)C(=O)N[C@@H](Cc1c[nH]c2ccccc12)C(=O)N[C@@H](CC(C)C)C(=O)N[C@@H](CC(C)C)C(=O)N[C@@H](C)C(=O)N[C@@H](CCC(N)=O)C(=O)N[C@@H](CCCCNC(=O)CCCCCCCCCCCCCCC(=O)O)C(N)=O)C(C)C)[C@@H](C)CC` [AT372, [hGIP(5-30)NH2[Q30K]-C16diacid/30]] displayed an Emax of 6%.

As for `CCCCCCCCCCCCCCCC(=O)NCCCC[C@H](NC(=O)[C@H](CCC(N)=O)NC(=O)[C@H](C)NC(=O)[C@H](CC(C)C)NC(=O)[C@H](CC(C)C)NC(=O)[C@H](Cc1c[nH]c2ccccc12)NC(=O)[C@H](CC(N)=O)NC(=O)[C@@H](NC(=O)[C@H](Cc1ccccc1)NC(=O)[C@H](CC(=O)O)NC(=O)[C@H](CCC(N)=O)NC(=O)[C@H](CCC(N)=O)NC(=O)[C@H](Cc1c[nH]cn1)NC(=O)[C@@H](NC(=O)[C@H](CCCCN)NC(=O)[C@H](CC(=O)O)NC(=O)[C@H](CCSC)NC(=O)[C@H](C)NC(=O)[C@@H](NC(=O)[C@H](CO)NC(=O)[C@H](Cc1ccc(O)cc1)NC(=O)[C@H](CC(=O)O)NC(=O)[C@H](CO)NC(=O)[C@@H](NC(=O)[C@H](Cc1ccccc1)NC(=O)[C@@H](NC(=O)CNC(=O)[C@@H](N)CCC(=O)O)[C@@H](C)O)[C@@H](C)CC)[C@@H](C)CC)[C@@H](C)CC)C(C)C)C(N)=O` [AT106, [hGIP(3-30)NH2—C16/30]], the Emax came to 64%.

On to `CC[C@H](C)[C@H](NC(=O)[C@H](CO)NC(=O)[C@H](Cc1ccc(O)cc1)NC(=O)[C@H](CC(=O)O)NC(=O)[C@H](CO)NC(=O)[C@@H](NC(=O)[C@H](Cc1ccccc1)NC(=O)[C@@H](NC(=O)CNC(=O)[C@@H](N)CCC(=O)O)[C@@H](C)O)[C@@H](C)CC)C(=O)N[C@@H](C)C(=O)N[C@@H](CCSC)C(=O)N[C@@H](CC(=O)O)C(=O)N[C@@H](CCCCN)C(=O)N[C@H](C(=O)N[C@@H](Cc1c[nH]cn1)C(=O)N[C@@H](CCC(N)=O)C(=O)N[C@@H](CCC(N)=O)C(=O)N[C@@H](CC(=O)O)C(=O)N[C@@H](Cc1ccccc1)C(=O)N[C@H](C(=O)N[C@@H](CC(N)=O)C(=O)N[C@@H](CCCCNC(=O)CCCCCCCCCCCCCCC(=O)O)C(=O)N[C@@H](CC(C)C)C(=O)N[C@@H](CC(C)C)C(=O)N[C@@H](C)C(=O)N[C@@H](CCC(N)=O)C(=O)N[C@@H](CCCCN)C(N)=O)C(C)C)[C@@H](C)CC` [AT314, [hGIP(3-30)NH2[W25K]-C16diacid/25]] (H-EGTFISDYSIAMDKIHQQDFVNK(C16 diacid)LLAQK-NH2; N-terminus assumed), for which the Emax stood at 28.4% and the EC50 was 62 nM.

Regarding `CC[C@H](C)[C@H](NC(=O)[C@H](CO)NC(=O)[C@H](Cc1ccc(O)cc1)NC(=O)[C@H](CC(=O)O)NC(=O)[C@H](CO)NC(=O)[C@@H](NC(=O)[C@H](Cc1ccccc1)NC(=O)[C@@H](NC(=O)CNC(=O)[C@@H](N)CCC(=O)O)[C@@H](C)O)[C@@H](C)CC)C(=O)N[C@@H](C)C(=O)N[C@@H](CCSC)C(=O)N[C@@H](CC(=O)O)C(=O)N[C@@H](CCCCN)C(=O)N[C@H](C(=O)N[C@@H](Cc1c[nH]cn1)C(=O)N[C@@H](CCCCNC(=O)CCCCCCCCCCCCCCC(=O)O)C(=O)N[C@@H](CCC(N)=O)C(=O)N[C@@H](CC(=O)O)C(=O)N[C@@H](Cc1ccccc1)C(=O)N[C@H](C(=O)N[C@@H](CC(N)=O)C(=O)N[C@@H](Cc1c[nH]c2ccccc12)C(=O)N[C@@H](CC(C)C)C(=O)N[C@@H](CC(C)C)C(=O)N[C@@H](C)C(=O)N[C@@H](CCC(N)=O)C(=O)N[C@@H](CCCCN)C(N)=O)C(C)C)[C@@H](C)CC` [AT308, [hGIP(3-30)NH2[Q19K]-C16diacid/19]] (H-EGTFISDYSIAMDKIHK(C16 diacid)QDFVNWLLAQK-NH2; N-terminus assumed), the Emax was found to be 7.9%.

Usually Emax stands for the greatest response seen or fitted, relative to the assay's reference. The term EC50 denotes the concentration that produces a half-maximal response.
